{"source": "patent EP4578449A1", "about": "“PHARMACEUTICAL COMBINATION OF FAK INHIBITOR AND MICROTUBULE INHIBITOR AND USE THEREOF” (Inxmed (Nanjing) Co., Ltd., priority 2022, dated 2024)", "key": {"[1]": {"system": "mouse colon cancer CT26 cells", "assay": "Docetaxel/Eribulin/Paclitaxel and Defactinib: microscopy and CRT/Annexin-V/PI flow cytometry", "format": "cell-based", "details": "48 hours, Defactinib 5 µM, Docetaxel 0.3 µM, Eribulin 0.3 µM, Paclitaxel 6 µM, alone or combined with Defactinib", "description": "(§1) CT26 cells were cultured in monolayer in vitro under the following conditions: RPMI-1640 medium with 10% fetal bovine serum, 37°C, 5% CO2. Trypsin was used for routine digestion and passage treatment two to three times a week. When the cells were in the exponential growth phase and the adherent confluence reached 80%-90%, the cells were harvested and plated.\n(§2) CT26 cells were digested with trypsin, and then the cells were collected and counted. Based on the counting results, the cells were diluted with the corresponding complete culture medium to a concentration of 50,000 cells per milliliter. Then the cells were plated in 12-well cell culture plates, with 2 ml of cell suspension per well, i.e., 100,000 cells.\n(§3) After plating, the cells were cultured in a 37°C and 5% CO2 incubator.\nAfter 24 hours of plating, the test compounds Docetaxel, Eribulin, Paclitaxel and Defactinib were added to different wells, respectively.\n(§4) After 48 hours of drug action, the cells were photographed using a microscope, and then trypsinized and collected for flow cytometry staining.\n(§5) The cells were washed twice with flow buffer (DPBS + 2% FBS). 0.5 µL of AF647 Anti-Calreticulin Antibody was added to each well, and mixed well. The cells were incubated at 4°C in the dark for 20 min. After washing once with flow buffer, 195 µL of Annexin-V-FITC binding solution was added, and the cells were gently mixed well. 5 µL of Annexin-V-FITC antibody was added. After further mixing, 10 µL of PI dye was added and mixed well. The cells were incubated at room temperature in the dark for 15 min. The cells were then subjected to flow cytometry.\n(§6) After the assay, the cell positive rate was analyzed by Flowjo (V10) software."}, "breast cancer 4T1 cells": {"system": "breast cancer 4T1 cells", "assay": "Subcutaneous allograft tumor model of breast cancer 4T1 cells in BALB/c mice", "format": "in vivo", "text": "Mice: Female BALB/c mice aged 6-8 weeks were purchased from SHANGHAI SLAC LABORATORY ANIMAL CO. LTD. The assay began after the animals were adapted to the assay environment upon arrival. The animals were kept in IVC (independent ventilation system) cages (5 per cage) in an SPF animal room. All cages, padding and drinking water must be sterilized before use. All assay personnel should wear protective clothing and latex gloves when operating in the animal room. Cages, feed and drinking water were replaced twice a week. The feeding environment and lighting conditions were as follows: • Temperature: 20-26 °C • Humidity: 40-70% • Lighting period: 12 hours light, 12 hours no light • Cages: Made of polycarbonate, 300 mm × 180 mm × 150 mm. The padding was corn cobs, which was replaced twice a week. • Food: The assay animals had free access to food (dry pelleted food sterilized by irradiation) throughout the assay period. • Drinking water: Assay animals were free to drink sterile water. • Cage identification: The animal information card for each cage should indicate the number of animals in the cage, gender, strain, receipt date, dosing regimen, assay number, group and start date of the assay. • Animal identification: Assay animals were identified with ear tags.\nBreast cancer cell 4T1 (source: Nanjing Cobioer Biotechnology Co., Ltd., catalog number: CBP60352) was maintained and passaged by INXMED (Nanjing) Co., Ltd. The cells were cultured in a monolayer in vitro in RPMI-1640 medium with 10% fetal bovine serum in a 37 °C, 5% CO2 incubator. Trypsin-EDTA was used for routine digestion and passage treatment two to three times a week. When the cells were in the exponential growth phase and the adherent confluence reached 80%-90%, the cells were harvested and plated.\n0.1 mL of cell suspension containing 2 x 10^5 cells was subcutaneously inoculated on the right back of each mouse. When the tumor volume reached ~52 mm^3 (10th day after cell inoculation), the mice were randomly divided into groups for drug administration according to the tumor volume. Table 9. Dosing regimen of the test substance in 4T1 mouse transplant tumor model\nThe formulation and any modifications of this assay protocol had been assessed and approved by the IACUC of ArrayBridge. The use and welfare of assay animals were carried out in accordance with AAALAC regulations. The health status and mortality of animals were monitored daily, with routine checks including observation of tumor growth and the impact of drug treatment on the animals' daily behavior, such as activity, food and water intake (estimated by visual inspection), changes in body weight, physical signs, or any other abnormalities. The number of animal deaths and side effects in each group were recorded based on the number of animals in each group.\nIf the animal's health condition continued to deteriorate, or if the tumor volume exceeded 3,000 mm^3, or there was a serious disease or pain, euthanasia should be carried out. In the following cases, the veterinarian was notified and euthanasia was performed: obvious weight loss, i.e., weight loss greater than 20%; inability to freely eat and drink; the average tumor volume of the control group reached 2000 mm^3, the assay was terminated.\nTumor diameters were measured three times a week using calipers. The tumor volume was calculated using the formula: V = 0.5 × a × b^2, where a and b represent the long and short diameters of the tumor, respectively.\nBased on the tumor volume on the first day after grouping, the tumor growth inhibition rate TGI (%) was calculated according to the following formula: TGI (%) = [1 - (average tumor volume of a treatment group - average tumor volume of the treatment group at the beginning of treatment) / (average tumor volume of the solvent control group - average tumor volume of the solvent control group at the beginning of treatment)] × 100%. […]"}, "[2]": {"system": "human ovarian epithelial carcinoma TOV-21G cells", "assay": "Eribulin and IN10018: microscopy and CRT/Annexin-V/PI flow cytometry", "format": "cell-based", "details": "48 hours, IN10018 10 µM, Eribulin 0.045 µM, alone or combined", "description": "(§7) ID8 cells and TOV-21G cells were cultured in monolayer in vitro. ID8 cells were cultured in DMEM medium with 10% fetal bovine serum. TOV-21G cells were cultured in RPMI-1640 medium with 10% fetal bovine serum. Both were cultured in a 37 °C, 5% CO2 incubator. Trypsin was used for routine digestion and passage treatment two to three times a week. When the cells were in the exponential growth phase and the adherent confluence reached 80%-90%, the cells were harvested and plated.\nas §2, with “ID8 cells and TOV-21G” for “CT26”, “trypsin” for “trypsin,”, “then” for “then the cells were”\nas §3\n(§8) After 24 hours of plating, test compounds IN10018 and Eribulin were added to different wells, respectively.\nas §4\nas §5, with “well, and mixed. The cells” for “well, and mixed well. The cells”\nas §6"}, "[3]": {"system": "mouse ovarian epithelial carcinoma ID8 cells", "assay": "Eribulin and IN10018: microscopy and CRT/Annexin-V/PI flow cytometry", "format": "cell-based", "details": "48 hours, IN10018 10 µM, Eribulin 0.045 µM, alone or combined", "description": "as §7\nas §2, with “ID8 cells and TOV-21G” for “CT26”, “trypsin” for “trypsin,”, “then” for “then the cells were”\nas §3, §8, §4\nas §5, with “well, and mixed. The cells” for “well, and mixed well. The cells”\nas §6"}, "[4]": {"system": "mouse breast cancer 4T1 cells", "assay": "Eribulin and IN10018: microscopy and CRT/Annexin-V/PI and GRP94 flow cytometry", "format": "cell-based", "details": "48 hours, IN10018 5 µM, Eribulin 0.15 µM or 0.45 µM, alone or combined", "description": "as §1, with “4T1” for “CT26”, “37 °C,” for “37°C,”\n4T1 cells were digested with trypsin and then collected and counted. Based on the counting results, the cells were diluted with RPMI-1640+10% FBS to a concentration of 50,000 cells per milliliter. Then the cells were plated in 12-well cell culture plates, with 2 ml of cell suspension per well, i.e., 100,000 cells. After plating, the cells were cultured in a 37°C and 5% CO2 incubator.\nas §8, §4\nThe cells were washed twice with flow buffer (DPBS + 2% FBS), and each group of cells was divided into two equal parts. In one part, 0.5 µL of AF647 Anti-Calreticulin Antibody was added to each well, and mixed. The cells were incubated at 4°C in the dark for 20 min. […]\nas §6"}, "colon cancer CT26 cells": {"system": "colon cancer CT26 cells", "assay": "IN10018 and Docetaxel: microscopy and CRT/Annexin-V/PI flow cytometry", "format": "cell-based, mouse", "details": "48 hours, IN10018 5 µM, Docetaxel 0.1 µM, alone or combined", "description": "CT26 cells (Institute of Cell Biology, Chinese Academy of Sciences) were cultured with RPMI-1640 (Shanghai Basalmedia, catalog number: L210KJ, batch number: F210916) + 10% FBS (Gibco, catalog number: 10099-141c, batch number: 2158737cp), and passaged twice. When the cells were in good condition, they were placed in a 24-well plate. After 24 hours of cell spreading, four groups were set up. The first group was the control group, in which culture medium was added; the second group was IN10018 at a concentration of 5µM; the third group was Docetaxel (MCE, classification number: HY-B0011, batch number: 111613) with a concentration of 0.1µM; and the fourth group was the combination group of IN10018 (5 µM) and Docetaxel (0.1µM). The drugs were mixed and cultured in a 5 % CO2 incubator at 37°C for 48 hours.\nAfter 48 hours of drug action, the cells were observed and photographed under a microscope. The photos were saved. Then the cells were collected for flow cytometry, and the cells were washed twice with flow buffer (PBS + 2% FBS). 0.5 µl of AF647 anti-calreticulin antibody (abcam, catalog number: ab196159, batch number: CR33676773) was added to each well, and fully mixed. The cells were incubated at 4 °C for 20 minutes in the dark. […] The mixture was incubated at room temperature in the dark for 15 minutes, and then analyzed on a flow cytometer."}}, "data": [{"smiles": "CC(=O)O[C@H]1C(=O)[C@@]2(C)[C@H]([C@H](OC(=O)c3ccccc3)[C@]3(O)C[C@H](OC(=O)[C@H](O)[C@@H](NC(=O)c4ccccc4)c4ccccc4)C(C)=C1C3(C)C)[C@]1(OC(C)=O)CO[C@@H]1C[C@@H]2O", "note": "[Paclitaxel]", "values": [{"measurement": "cell status (cell death) under a microscope", "setting": "[1]", "value": "obvious"}]}, {"smiles": "Cc1c(C=Cc2cc(CNC(C)(CO)C(=O)O)ccc2C(F)(F)F)cccc1-c1ccc2c(c1)OCCO2", "note": "(stereo not drawn) [MAX10181]", "values": [{"measurement": "Tumor volume on day 0", "setting": "breast cancer 4T1 cells; baseline at grouping (10th day after inoculation), mean ± standard error, 6 mice per group", "value": "51.7 ± 13.9", "unit": "mm^3"}, {"measurement": "TGI", "setting": "breast cancer 4T1 cells; day 21 after administration, vs control group, DTX 10 mg/kg i.p. BIW, IN10018 25 mg/kg p.o. QD, MAX10181 120 mg/kg p.o. BID", "value": -3.7, "unit": "%"}, {"measurement": "Tumor volume on day 21", "setting": "breast cancer 4T1 cells; day 21 after administration, DTX 10 mg/kg i.p. BIW, IN10018 25 mg/kg p.o. QD, MAX10181 120 mg/kg p.o. BID, mean ± standard error", "value": "2205.7 ± 912.7", "unit": "mm^3"}, {"measurement": "death of animals", "setting": "breast cancer 4T1 cells; entire dosing cycle (21 days), 6 mice per group, deaths following diarrhea, MAX10181 120 mg/kg p.o. BID, DTX 10 mg/kg i.p. BIW", "value": "one"}]}, {"smiles": "COc1cc(C(=O)NC2CCN(C)CC2)c(F)cc1Nc1ncc(C(F)(F)F)c(Oc2cccc3c2C(=O)N(C)C3)n1", "note": "[IN10018]", "values": [{"measurement": "cell status (cell death / cell viability) under a microscope", "setting": "[2]", "value": "better"}, {"measurement": "cell status (cell death / cell viability) under a microscope", "setting": "[3]", "value": "better"}, {"measurement": "cell status (cell death / cell viability) under a microscope", "setting": "[4]", "value": "better"}, {"measurement": "cell status under a microscope", "setting": "colon cancer CT26 cells", "value": "good"}]}]}
